{"source": "patent US7875587B2", "about": "“Peptide analogues of GIP for treatment of diabetes, insulin resistance and obesity” (UUTECH Limited, priority 2004, dated 2011)", "key": {"[1]": {"molecular_target": "T1, DPP IV (Sus scrofa, UniProt P22411)", "T1 construct": "purchased Sigma (Poole, Dorset, UK)", "T1 sequence (P22411 whole entry)": "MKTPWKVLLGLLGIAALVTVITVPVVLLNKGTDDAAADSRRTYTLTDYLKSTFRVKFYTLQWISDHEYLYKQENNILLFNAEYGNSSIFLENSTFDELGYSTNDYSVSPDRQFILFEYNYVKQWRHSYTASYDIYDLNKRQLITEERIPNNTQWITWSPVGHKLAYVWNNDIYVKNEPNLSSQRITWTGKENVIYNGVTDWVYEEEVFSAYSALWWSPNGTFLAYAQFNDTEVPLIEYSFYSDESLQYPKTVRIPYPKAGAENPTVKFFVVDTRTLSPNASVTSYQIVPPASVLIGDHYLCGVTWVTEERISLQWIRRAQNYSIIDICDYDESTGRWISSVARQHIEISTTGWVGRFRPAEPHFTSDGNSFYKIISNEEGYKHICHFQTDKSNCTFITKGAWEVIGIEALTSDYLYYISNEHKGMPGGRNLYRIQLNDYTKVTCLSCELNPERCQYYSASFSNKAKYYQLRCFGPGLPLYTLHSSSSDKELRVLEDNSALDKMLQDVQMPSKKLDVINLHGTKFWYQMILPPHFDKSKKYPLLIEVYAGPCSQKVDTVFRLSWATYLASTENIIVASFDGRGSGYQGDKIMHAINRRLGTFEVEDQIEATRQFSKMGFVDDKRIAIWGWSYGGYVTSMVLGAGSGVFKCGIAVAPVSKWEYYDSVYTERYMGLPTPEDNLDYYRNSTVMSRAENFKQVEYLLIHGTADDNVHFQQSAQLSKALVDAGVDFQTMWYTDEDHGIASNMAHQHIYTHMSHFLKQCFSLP", "assay": "DPP IV degradation studies of fatty acid derivatised GIP analogues", "assay_type": "in vitro ADME, porcine", "settings": "pig, isolated enzyme dpp iv, pH 7.8, incubation with DPP IV, read-out: % Intact peptide remaining after time (hours)", "procedure": "(§1) DPP IV degradation studies. GIP and fatty acid derivatised GIP analogues were incubated at 37° C. with purified porcine dipeptidylpeptidase IV (5 mU in 50 mmol/l triethanolamine-HCl; pH 7.8) for 0, 2, 4, 8 and 24 hours (final peptide concentration 2 mmol/l). The reactions were subsequently terminated by addition of 10% (v/v) TFA/water and the reaction products separated using HPLC. […] HPLC peak area data were used to calculate % intact peptide remaining throughout the incubation."}, "[2]": {"molecular_target": "T2, purified porcine dipeptidylpeptidase IV (Sus scrofa, UniProt P22411)", "T2 construct": "purchased Sigma (Poole, Dorset, UK)", "T2 sequence (P22411 whole entry)": "as above", "assay": "DPP IV degradation studies of fatty acid derivatised GIP analogues", "assay_type": "in vitro ADME", "settings": "incubation with DPP IV", "procedure": "as §1"}, "[3]": {"molecular_target": "T3, human GIP receptor (Homo sapiens, UniProt P48546)", "T3 construct": "expressed in transfected cells; host or cells: Chinese hamster lung (CHL) fibroblasts, stably transfected", "T3 sequence (P48546 22-466)": "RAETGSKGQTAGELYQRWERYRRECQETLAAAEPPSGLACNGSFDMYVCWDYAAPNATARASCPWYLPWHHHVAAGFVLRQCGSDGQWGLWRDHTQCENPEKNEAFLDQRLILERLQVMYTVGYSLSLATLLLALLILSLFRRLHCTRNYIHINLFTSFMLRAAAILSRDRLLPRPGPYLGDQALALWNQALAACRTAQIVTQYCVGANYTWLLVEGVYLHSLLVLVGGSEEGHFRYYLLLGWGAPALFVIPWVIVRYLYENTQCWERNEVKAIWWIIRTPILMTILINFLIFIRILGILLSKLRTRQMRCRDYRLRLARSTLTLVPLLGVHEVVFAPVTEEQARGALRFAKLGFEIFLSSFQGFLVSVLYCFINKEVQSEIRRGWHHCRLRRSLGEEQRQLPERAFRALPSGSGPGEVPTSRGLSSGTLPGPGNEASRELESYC", "assay": "Intracellular cyclic AMP production in GIP-receptor transfected CHL fibroblasts", "assay_type": "cell-based", "procedure": "In vitro biological activity. […] In brief, CHL cells were seeded into 12-well plates (Nünc, Roskilde, Denmark) at a density of 10^5 cells per well and allowed to grow for 48 hours before being loaded with tritiated adenine (2 μCi; TRK311; Amersham, Buckinghamshire, UK). The cells were then incubated at 37° C. for 6 hours in 1 ml DMEM supplemented with 0.5% (w/v) BSA and subsequently washed twice with HBS buffer (pH 7.4). […] The medium was subsequently removed and the cells lysed with 1 ml of 5% TCA containing 0.1 mmol/l unlabelled cyclic AMP and 0.1 mmol/l unlabelled ATP."}, "[4]": {"tested_on": "ob/ob mice", "assay": "Acute metabolic and dose-response effects with glucose in 18 h fasted ob/ob mice", "assay_type": "in vivo, mouse", "procedure": "Animals. Obese diabetic (ob/ob) mice derived from the colony maintained at Aston University, UK were used at 12-17 weeks of age. The genetic background and characteristics of the colony used have been outlined in detail elsewhere (Bailey, C. J. et al., 1982, Int. J. Obesity 6:11-21; Gault, V. A. et al., 2003, J. Endocrinol. 176: 133-141). Animals were housed in an air-conditioned room at 22±2° C. with a 12 hours light: 12 hours dark cycle. Drinking water and standard rodent maintenance diet (Trouw Nutrition, Cheshire, UK) were freely available. All test solutions were administered by i.p. injection in a final volume of 5 ml/kg bw. Blood was collected from the cut tip of the tail vein of conscious mice into chilled fluoride/heparin microcentrifuge tubes immediately prior to injection and at the times indicated in the Figures. Plasma was separated using a Beckman microcentrifuge (Beckman Instruments, UK) at 13,000 g for 30 second and stored at −20° C. prior to glucose and insulin determinations. All animal experiments were carried out in accordance with the UK Animals (Scientific Procedures) Act 1986.\nMetabolic and dose-response effects of GIP and N-AcGIP(LysPAL) analogues (at 6.25-25 nmoles/kg bw) following glucose administration (18 mmoles/kg bw) were examined in mice fasted for 18 hours. […] Food intake and body weight were recorded daily. Plasma glucose and insulin concentrations were monitored at 2-6 day intervals. At 14 days, groups of animals were used to evaluate intraperitoneal glucose tolerance (18 mmoles/kg) and insulin sensitivity (50 U/kg). In a separate series, two experimental protocols were employed to examine the possibility of GIP receptor desensitization after 14 days treatment. […] At the end of the 14-day treatment period, pancreatic tissues were excised for measurement of insulin following extraction with 5 ml/g ice-cold acid ethanol (75% ethanol, […], 1.5% HCl). Whole blood was taken for determination of glycated hemoglobin.\nBiochemical analyses. Plasma glucose was assayed by an automated glucose oxidase procedure (Stevens, J. F., 1971, Clin. Chem. Acta 32:199-201) using a Beckman Glucose Analyser II (Beckman, Galway, Ireland). Plasma insulin was determined by dextran-charcoal RIA as described previously (Flatt, P. R. et al., 1981, Diabetologia 20: 573-577). Glycated hemoglobin was determined using cation-exchange columns (Sigma, Poole, Dorset, UK) with measurement of absorbance (415 nm) in wash and eluting buffers using a VersaMax microplate spectrophotometer (Molecular Devices, Wokingham, Berkshire, UK).\nStatistics. Results are expressed as mean±SEM. Data were compared using the unpaired Student's t-test. Where appropriate, data were compared using repeated measures ANOVA or one-way ANOVA, followed by the Student-Newman-Keuls post hoc test. Incremental areas under plasma glucose and insulin curves (AUC) were calculated using a computer-generated program employing the trapezoidal rule (Burington, R. S., 1973, Handbook of Mathematical Tables and Formulae, McGraw-Hill, New York) with baseline subtraction."}, "[5]": {"tested_on": "BRIN-BD11 cells", "assay": "Insulin release from clonal pancreatic BRIN-BD11 cells (Example 6)", "assay_type": "cell-based", "settings": "5.6 mmol/l glucose, 20 minutes incubation", "procedure": "Cells and cell culture. Chinese hamster lung (CHL) fibroblasts stably transfected with the human GIP receptor (Gremlich, S. et al., 1995, Diabetes 44: 1202-1208) were cultured in DMEM tissue culture medium containing 10% (v/v) FBS, 1% (v/v) antibiotics (100 U/ml penicillin, 0.1 mg/ml streptomycin). Clonal pancreatic BRIN-BD11 cells (McClenaghan, N. H. et al., 1996, Diabetes 45: 1132-1140) were cultured using RPMI-1640 culture medium containing 10% (v/v) FBS, 1% (v/v) antibiotics (100 U/ml penicillin, 0.1 mg/ml streptomycin) and 11.1 mmol/l glucose. Cells were maintained at 37° C. in an atmosphere of 5% CO2 and 95% air using an LEEC incubator (Laboratory Technical Engineering, Nottingham, UK).\nInsulin-release studies were carried out using clonal pancreatic BRIN-BD11 cells as described previously (O'Harte, F. P. M. et al., 2002, Diabetologia 45: 1281-1291). Briefly, BRIN-BD11 cells were seeded into 24-well plates at a density of 10^5 cells per well, and allowed to attach overnight at 37° C. Acute tests for insulin release were preceded by 40 minutes pre-incubation at 37° C. in 1.0 ml Krebs Ringer bicarbonate buffer supplemented with 1.1 mmol/l glucose. Test incubations were performed in the presence of 5.6 mmol/l glucose with a range of concentrations (10^−13 to 10^−6 mol/l) of GIP and GIP analogues. After 20 minutes incubation, the buffer was removed from each well and aliquots (200 μl) used for measurement of insulin."}}, "data": [{"smiles": "CCCCCCCCCCCCCCCC(=O)NCCCC[C@H](NC(=O)[C@H](CC(=O)O)NC(=O)[C@H](CCSC)NC(=O)[C@H](C)NC(=O)[C@@H](NC(=O)[C@H](CO)NC(=O)[C@H](Cc1ccc(O)cc1)NC(=O)[C@H](CC(=O)O)NC(=O)[C@H](CO)NC(=O)[C@@H](NC(=O)[C@H](Cc1ccccc1)NC(=O)[C@@H](NC(=O)CNC(=O)[C@H](CCC(=O)O)NC(=O)[C@H](C)NC(=O)[C@H](Cc1ccc(O)cc1)NC(C)=O)[C@@H](C)O)[C@@H](C)CC)[C@@H](C)CC)C(=O)N[C@H](C(=O)N[C@@H](Cc1c[nH]cn1)C(=O)N[C@@H](CCC(N)=O)C(=O)N[C@@H](CCC(N)=O)C(=O)N[C@@H](CC(=O)O)C(=O)N[C@@H](Cc1ccccc1)C(=O)N[C@H](C(=O)N[C@@H](CC(N)=O)C(=O)N[C@@H](Cc1c[nH]c2ccccc12)C(=O)N[C@@H](CC(C)C)C(=O)N[C@@H](CC(C)C)C(=O)N[C@@H](C)C(=O)N[C@@H](CCC(N)=O)C(=O)N[C@@H](CCCCN)C(=O)NCC(=O)N[C@@H](CCCCN)C(=O)N[C@@H](CCCCN)C(=O)N[C@@H](CC(N)=O)C(=O)N[C@@H](CC(=O)O)C(=O)N[C@@H](Cc1c[nH]c2ccccc12)C(=O)N[C@@H](CCCCN)C(=O)N[C@@H](Cc1c[nH]cn1)C(=O)N[C@@H](CC(N)=O)C(=O)N[C@H](C(=O)N[C@H](C(=O)N[C@@H](CCC(N)=O)C(=O)O)[C@@H](C)O)[C@@H](C)CC)C(C)C)[C@@H](C)CC", "note": "[N-AcGIP(LysPAL^16)]", "values": [{"measurement": "remaining at 2 h, 2 mmol/l", "setting": "[1]; 2 h", "result": 100, "unit": "%"}, {"measurement": "remaining at 8 h, 2 mmol/l", "setting": "[1]; 8 h", "result": 100, "unit": "%"}, {"measurement": "remaining at 24 h, 2 mmol/l", "setting": "[1]; 24 h", "result": 100, "unit": "%"}, {"measurement": "% Intact peptide remaining after time (hours)", "setting": "[2]; 0 h", "result": 100, "unit": "%"}, {"measurement": "% Intact peptide remaining after time (hours)", "setting": "[2]; 24 h", "result": "remained completely intact"}, {"measurement": "EC50", "setting": "[3]", "result": 12.1, "unit": "nM"}, {"measurement": "enhancement of overall glucose-mediated insulin release (AUC) compared to native GIP", "setting": "[4]; 25 nmoles/kg i.p. with glucose", "result": 1.5, "unit": "fold"}, {"measurement": "overall glucose excursion compared to native GIP", "setting": "[4]; 25 nmoles/kg i.p. with glucose", "result": "decreased the overall glucose excursion"}, {"measurement": "overall glucose excursion (glucose AUC) compared to glucose alone", "setting": "[4]; 25 nmoles/kg i.p. with glucose 18 mmoles/kg, 0-60 min", "result": "significantly lowered glucose AUC"}, {"measurement": "insulin secretion compared to control", "setting": "[5]", "result": "significantly stimulated glucose-induced insulin secretion"}]}]}
